Earlier results in patent US20170042147A1, “A miticide composition of prolonged action and its manufacturing process, a miticide strip and a procedure to control Varroa destructor mite” (COOP. DE TRABAJO APÍCOLA PAMPERO LTDA, priority 2014, published 2017).

Test system: Varroa
Settings: bee hives without brood; use in Europe

O=C(O)C(=O)O [Oxalic acid]
efficacy against Varroa: excellent efficacy
